Calls of active or inactive are those of the source. The rule behind the calls is not given here.
Assays:
[1] = Cytotoxicity against human BEAS-2B cells assessed as cell viability by MTT assay; type: toxicity, cell-based
[2] = system: MDA-MB-231; assay: Anti-metastatic activity in human MDA-MB-231 cells assessed as decrease in ZEB1 protein level at 1 to 4 uM by Western blotting analysis; type: functional, cell-based; settings: dose 1-4 µM
[3] = system: MDA-MB-231; assay: Induction of apoptosis in human MDA-MB-231 cells assessed as increase in cleaved PARP expression at 1 to 4 uM incubated for 24 hrs by Western blotting analysis; type: functional, cell-based; settings: dose 1-4 µM
[4] = system: 4T1; assay: Anti-proliferative activity against mouse 4T1 cells assessed as cell viability measured after 24 hrs by MTT assay; type: functional, cell-based; settings: dose 1-8 µM
[5] = system: HeLa; assay: Cytotoxicity against human HeLa cells assessed as cell viability by MTT assay; type: functional, cell-based
[6] = system: 4T1; assay: Antimigratory activity against mouse 4T1 cells assessed as decrease in migration of tumor cells into scratching region at 8 to 10 uM incubated for 12 to 24 hrs by Wound healing assay; type: functional, cell-based; settings: dose 8-10 µM, time 12-24 hrs
[7] = system: 4T1; assay: Induction of apoptosis in mouse 4T1 cells assessed as increase in apoptotic rate at 1.5 uM incubated for 24 hrs by Annexin V-FITC/PI double staining by flow cytometry; type: functional
[8] = system: MDA-MB-231; assay: Induction of mitochondrial membrane potential loss in human MDA-MB-231 cells assessed as decrease in fluorescence intensity by JC-1 aggregate assay; type: functional, cell-based; settings: dose 2-4 µM
[9] = system: 4T1; assay: Induction of cell cycle arrest in mouse 4T1 cells assessed as accumulation of cells at G0/G1 phase at 1.5 uM measured after 24 hrs by PI staining by flow cytometry; type: functional
[10] = system: MDA-MB-231; assay: Anti-tumor activity against human MDA-MB-231 cells assessed as change in TGF-beta1/Smad signaling pathway by measuring fluorescence intensity of TGF-beta1 level at 2 to 4 uM after 24 hrs incubation by immunofluorescence staining assay; type: functional, cell-based; settings: dose 2-4 µM
[11] = system: 4T1; assay: Cytotoxicity against mouse 4T1 cells assessed as cell viability by MTT assay; type: functional, cell-based
[12] = system: MDA-MB-231; assay: Induction of cell cycle arrest in human MDA-MB-231 cells assessed as reduction in cyclin E1 expression at 1 to 4 uM measured after 24 hrs by immunoblotting assay; type: functional, cell-based; settings: dose 1-4 µM
[13] = system: 4T1; assay: Induction of apoptosis in mouse 4T1 cells assessed as increase in apoptotic rate incubated for 24 hrs in presence of SB-431542 TGF-beta signaling inhibitor by Annexin V-FITC/PI double staining by flow cytometry; type: functional, cell-based
[14] = Cytotoxicity against human HFF cells assessed as cell viability by MTT assay; type: toxicity, cell-based
[15] = system: MDA-MB-231; assay: Anti-tumor activity against human MDA-MB-231 cells assessed as change in expression of genes involved in TGF-beta1/Smad signaling pathway measured after 24 hrs incubation by RNA-Seq analysis; type: functional, cell-based
[16] = system: MDA-MB-231; assay: Inhibition of colony formation in human MDA-MB-231 cells assessed as reduction in colony formation treated for 10 days medium refreshed every two days by crustal violet based assay; type: functional, cell-based; settings: time 10.0 day
[17] = system: MDA-MB-231; assay: Induction of cell cycle arrest in human MDA-MB-231 cells assessed as upregulation of p21 protein expression at 1 to 4 uM measured after 24 hrs by immunoblotting assay; type: functional, cell-based; settings: dose 1-4 µM
[18] = system: MDA-MB-231; assay: Anti-metastatic activity in human MDA-MB-231 cells assessed as decrease in vimentin protein level at 1 to 4 uM by Western blotting analysis; type: functional, cell-based; settings: dose 1-4 µM
[19] = system: MDA-MB-231; assay: Reduction of ATP level in human MDA-MB-231 cells incubated for 24 hrs by colorimetric based ATP Content Assay Kit; type: functional, cell-based; settings: dose 1-4 µM
[20] = system: MDA-MB-231; assay: Induction of cell cycle arrest in human MDA-MB-231 cells assessed as reduction in p-Rb expression at 1 to 4 uM measured after 24 hrs by immunoblotting assay; type: functional, cell-based; settings: dose 1-4 µM
[21] = system: 4T1; assay: Induction of DNA damage in mouse 4T1 cells assessed as increase in gamma-H2AX focal expression at 2 to 4 uM by immunofluorescence staining assay; type: functional, cell-based; settings: dose 2-4 µM
[22] = system: MDA-MB-231; assay: Induction of apoptosis in human MDA-MB-231 cells assessed as increase in apoptotic rate at 1 uM incubated for 24 hrs by Annexin V-FITC/PI double staining by flow cytometry; type: functional
[23] = system: MDA-MB-231; assay: Anti-tumor activity against human MDA-MB-231 cells assessed as change in TGF-beta1/Smad signaling pathway by measuring increase in p-Smad2 level after 24 hrs incubation by Western blot analysis; type: functional, cell-based; settings: dose 1-4 µM
[24] = system: A549; assay: Cytotoxicity against human A549 cells assessed as cell viability by MTT assay; type: functional, cell-based
[25] = system: 4T1; assay: Induction of apoptosis in mouse 4T1 cells assessed as increase in apoptotic rate at 6 uM incubated for 24 hrs by Annexin V-FITC/PI double staining by flow cytometry; type: functional
[26] = system: MDA-MB-231; assay: Induction of apoptosis in human MDA-MB-231 cells assessed as increase in cleaved caspase 3 expression at 1 to 4 uM incubated for 24 hrs by Western blotting analysis; type: functional, cell-based; settings: dose 1-4 µM
[27] = system: MDA-MB-231; assay: Induction of apoptosis in human MDA-MB-231 cells assessed as increase in cleaved caspase 9 expression at 1 to 4 uM incubated for 24 hrs by Western blotting analysis; type: functional, cell-based; settings: dose 1-4 µM
[28] = system: MDA-MB-231; assay: Induction of cell cycle arrest in human MDA-MB-231 cells assessed as reduction in cyclin D1 expression at 1 to 4 uM measured after 24 hrs by immunoblotting assay; type: functional, cell-based; settings: dose 1-4 µM
[29] = system: MDA-MB-231; assay: Anti-tumor activity against human MDA-MB-231 cells assessed as change in TGF-beta1/Smad signaling pathway by measuring increase in TGF-beta1 level after 24 hrs incubation by Western blot analysis; type: functional, cell-based; settings: dose 1-4 µM
[30] = system: MDA-MB-231; assay: Anti-tumor activity against human MDA-MB-231 cells assessed as decrease in cell viability at 8 uM incubated for 24 hrs in presence of SB-431542 TGF-beta signaling inhibitor by MTT assay; type: functional, cell-based

In the case of O=C1C[C@@H](c2ccccc2)Oc2cc(O)c([C@H](/C=C/C[C@@H](O)CCc3ccccc3)c3ccccc3)c(O)c21, the IC50 [1] is reported as 5.27 µM, the Activity [2] is reported as “Active” and the Activity [3] is reported as “Active”. For the same molecule, the Activity [4] was “Dose-Dependent Effect”, the IC50 [5] was 2.2 µM and the Activity [6] was “Active”. The Activity [7] was 6.84%, the Activity [8] was “Dose-Dependent Effect” and the Activity [9] was 55.78%. The Activity [10] was “Active”, the IC50 [11] was 2.82 µM and the Activity [12] was “Active”. For the same molecule, the Activity [13] was “inactive”, the IC50 [14] was 5.91 µM and the Activity [15] was “Active”. For the same molecule, the inhibition [16] was “Dose-Dependent Effect”, the Activity [17] was “Active” and the Activity [18] was “Active”. For the same molecule, the inhibition [19] was “Active”, the Activity [20] was “Active” and the Activity [21] was “Active”. The Activity [22] was 6.84%, the Activity [23] was “Dose-Dependent Effect” and the IC50 [24] was 3.21 µM. For the same molecule, the Activity [25] was 48.24%, the Activity [26] was “Active” and the Activity [27] was “Active”. The Activity [28] was “Active”, the Activity [29] was “Dose-Dependent Effect” and the Activity [30] was “inactive”.
